Test results: patent US7375111B2, “Compositions for affecting weight loss” (priority 2003, dated 2008)
Values joined by “and” are separate entries in the source; they are usually repeats but may differ in a detail not shown here. Identical values can stand only once.

Columns and labels:
C57/B16J mice = experiment: Dose-response experiments: cumulative food intake after intraperitoneal injection in fasted mice; conditions: food removed the day before
Method: Cumulative food intake±SEM was calculated and analyzed using Prizm. […] From the curve, the EC50 at each time point for each drug was determined.

POMC neurons [1] = experiment: Electrophysiology: cell-attached recordings of action potential frequency of POMC-EGFP neurons in hypothalamic (ARC) slices; conditions: applied to the bath for 3 min
Method: Under ultraviolet (450-480 nm) excitation, POMC neurons were clearly distinguished from adjacent, non-fluorescent neurons visualized under infrared optics.
200 μm thick coronal slices were cut from the ARC of four-week old male POMC-EGFP mice. […] Recordings were made in Krebs at 35° C. Slices were visualized on an Axioskop FS2 plus (Zeiss) through standard infra red optics and using epifluorescence through a FITC (longpass) filter set. […] Cell-attached recordings were made from fluorescent neurons using an Axopatch 200B amplifier (Axon Instruments) and Clampex 8 (Axon Instruments). Action potentials frequencies were determined using an event detection program (Mini Analysis; Synaptosoft Inc., Decatur, Ga.). Drugs were applied to the bath for 3 min.
Data were analyzed by determining the average firing rate for 500 sec prior to drug addition, and analyzing treatments relative to this frequency (that is, firing rates were normalized to the pre-treatment frequency).

POMC neurons [2] = conditions: Heisler et al., Science 297(5581):609-11 (2002); cited from earlier work
[3] = in vivo; cited from earlier work

| SMILES | Cumulative food intake expressed as a proportion of the food intake in saline treated animals, MEAN (C57/B16J mice; Hour 1 post-injection) | Cumulative food intake expressed as a proportion of the food intake in saline treated animals, MEAN (C57/B16J mice; Hour 2 post-injection) | Cumulative food intake expressed as a proportion of the food intake in saline treated animals, MEAN (C57/B16J mice; Hour 4 post-injection) | Cumulative food intake expressed as a proportion of the food intake in saline treated animals, MEAN (C57/B16J mice; Hour 8 post-injection) | Cumulative food intake expressed as a proportion of the food intake in saline treated animals, MEAN (C57/B16J mice; headed Hour 8 a second time) | Mean effect of the drug alone on firing rate, normalized to the pre-treatment frequency (POMC neurons [1]) | Effect of fenfluramine alone (POMC neurons [2]) | Physiological half life [3] |
| --- | --- | --- | --- | --- | --- | --- | --- | --- |
| Cc1c(C(=O)NN2CCCCC2)nn(-c2ccc(Cl)cc2Cl)c1-c1ccc(I)cc1 [AM 251, N-(piperidin-1-yl)-1-(2,4-dichlorophenyl)-5-(4-iodophenyl)-4-methyl-1H-pyrazole-3-carboxamide] | 0.97 | 0.85 | 0.88 | 0.90 | 0.99 |  |  |  |
| CC(NC(C)(C)C)C(=O)c1cccc(Cl)c1 (centres unmarked) [Bupropion, bupropion] | 0.32 | 0.64 | 0.97 | 0.96 | 0.99 |  |  |  |
| NCCc1ccc(O)c(O)c1 [Dopamine] |  |  |  |  |  | 11X (n = 9) |  |  |
| CCNC(C)Cc1cccc(C(F)(F)F)c1 (centres unmarked) [Fenfluramine, fenfluramine] |  |  |  |  |  | 2X increase (n = 6) | 200% |  |
| CNCCC(Oc1ccc(C(F)(F)F)cc1)c1ccccc1 (centres unmarked) [Fluoxetine, fluoxetine] | 0.36 | 0.57 | 0.68 | 0.76 | 1.05 | 3X (n = 1) |  | about 9 hours |
| COCCCC/C(=N\OCCN)c1ccc(C(F)(F)F)cc1 [Fluvoxamine, fluvoxamine] | 0.77 | 0.85 | 0.95 | 0.91 | 0.92 |  |  |  |
| C=C1CC[C@@]2(O)[C@H]3Cc4ccc(O)c5c4[C@@]2(CCN3CC2CC2)[C@H]1O5 [Nalmefene, nalmefene] | 0.0083 | 0.11 | 0.57 | 0.81 | 0.98 |  |  |  |
| O=C1CC[C@@]2(O)[C@H]3Cc4ccc(O)c5c4[C@@]2(CCN3CC2CC2)[C@H]1O5 [Naltrexone, naltrexone] | 0.41 and 0.30 | 0.77 and 0.56 | 0.99 and 0.83 | 1.1 and 0.98 | 0.98 and 1.01 |  |  |  |
